Two molecules from US20250100962A1 (CITY OF HOPE, priority 2023, published 2025) can be followed below.

Series [1] has as its system C3H10T1/2 cells. Nature of the series: Adipogenic differentiation of C3H10T1/2 mesenchymal precursors. In kind it is cell-based. The settings on record: for adipogenic factors C/EBPα and PPARγ / mature adipocyte marker expression (FASN): 1 μM, immunoblot; for adipogenic factors C/EBPα and PPARγ: day 7 differentiated; for mature adipocyte formation / lipid accumulation: day 8, oil-red-O and Bodipy. How it is done: Cell culture and adipogenic differentiation. 3T3-L1 and C3H10T1/2 cell lines were obtained from ATCC, and maintained in DMEM with 10% fetal bovine serum supplemented with 1% Penicillin-Streptomycin-Glutamine, as previously described (Nam, Guo, Chatterjee et al., 2015; Liu, Xiong, Nam et al., 2020). 0.25% Trypsin was used for digestion and passaging of these cell lines. For adipogenic differentiation induction media (1.6 μM insulin, 1 μM dexamethasone, 0.5 mM IBMX, 0.5 uM Rosiglitazone) was used for 3 days followed by maintenance medium with insulin for 3 days for 3T3-L1 and 5 days for C3H10T1/2 cells, as previously described (Liu et al., 2020).
Oil-red-O and Bodipy staining. These stainings for neutral lipids during adipogenic differentiation were performed as previously described (Nam et al., 2015). Briefly, for oil-red-O staining, cells were fixed using 10% formalin and incubated using 0.5% oil-red-O solution for 1 hour. Bodipy 493/503 was used at 1 mg/L together with DAPI for 15 minutes, following 4% paraformaldehyde fixation and permeabilization with 0.2% triton-X100.
(§1) Immunoblot analysis. Total protein was extracted using lysis buffer containing 3% NaCl, 5% Tris-HCl, 10% Glycerol, 0.5% Triton X-10 in MilliQ water with protease inhibitor cocktail. 20-40 μg of total protein was resolved on 10% SDS-PAGE gels followed by immunoblotting on PVDF membranes (Bio-rad). Membranes were developed by chemiluminescence (SuperSignal West Pico, Pierce Biotechnology) and signals were obtained via a chemiluminescence imager (Amersham Imager 680, GE Biosciences).

Series [2] deals with dystrophin-deficient mdx primary myoblasts. In words: Myogenic differentiation of mdx primary myoblasts (MyHC staining). The class given is cell-based, mouse. The settings on record: for mature myofiber/myocyte formation (MyHC staining): 2% FBS, vs DMSO. From the text:
FIGS. 16A-16B. Pro-myogenic effect of chlorhexidine on dystrophin-deficient mdx primary myoblasts. FIG. 16A: We used primary myoblasts isolated from male mdx mice as a cellular model to test the effect of CHX on myogenesis. […] Both of the pro-myogenic and proliferative effects of CHX observed in mdx primary myoblasts were consistent with prior findings from C2C12 myoblasts. Additional validations of these effects are on-going using myoblasts derived from human DMD patients.
FIGS. 22A-22B. […] Using primary myoblasts isolated from mdx mice, we determined CM002 effect on myogenesis in this dystrophic disease cellular model. […] Similar as shown in C2C12 myoblasts, this effect was stronger than that of CHX.

The subject of series [3] is U2OS cells containing Per2::dLuc luciferase reporter. Nature of the series: Real-time bioluminescence monitoring of Per2::Luciferase reporter in U2OS cells (LumiCycle). In kind it is cell-based. The settings on record: for Modulatory Property: clock-modulatory classification. The procedure: U2OS cells or mouse fibroblasts (MF) containing a Per2-luciferase reporter (Yoo et al., 2004) were seeded at 4×10^5 concentration on 24 well plates and treated at 90% confluence with 1 ml 1×Fresh explant medium with desired compounds and controls. The seeding density was decided after trying several densities and choosing the one that after 24 h lead to 90% confluence. 1× Fresh explant medium was produced using 50% 2×DMEM buffer stock [DMEM powder (Gibco—Thermo Fisher CN: 12800-017), Sterile MilliQ water, pH7 1 M HEPES (Gibco—Thermo Fisher CN:15630080) and 7.5% Sodium Bicarbonate (Gibco—Thermo Fisher CN: 25080094)], 10% FBS (Cytiva), 37.9% Sterile MiliQ water, 1% PSG 100× (Gibco—Thermo Fisher CN: 10378016), 0.1% Sodium Hydroxixe (NaOH) 100 mM (Fishel Chemical CN: S318-500), 1% XenoLight D-Luciferin—Monopotassium Salt Bioluminiscent Substrate 100 mM (PerkinElmer CN: 122799). Treated cells were introduced to the LumiCycle96 (ActiMetrics) were they were cultured and Per2-luciferafe reporter luminescence was measured for 6 days. Raw and subtracted results for 5 days were exported and data was calculated as luminescence counts per second.

In the next series the test system is C2C12 myoblasts. In words: Myogenic differentiation of C2C12 myoblasts. To be noted: for MyHC-positive mature myotubes (immunofluorescence): C2C12 differentiation day 5-7. The class given is cell-based, mouse. The procedure:
Pictures were taken every day to monitor morphological progression, and proteins and RNA samples were collected on days indicated.
C2C12, C2C12 Bmal1 KD and C2C12 Scrambled control (SC) myoblasts were seeded at Day −1 at 2×105 concentration on 12 wells plates and maintained in 10% FBS until 80% confluency and treated with indicated compounds and controls in 2% FBS DMEM media to induce differentiation on Day 0. On days 3, 5 and 7 cells were fixed with 4% paraformaldehyde (from 37% Formaldehyde Baker Analyzed) and kept at 4° C. in PBS. Cells were permeabilized with Permeabilization solution of 0.5% Triton X-100 (Fisher Bioreagents CN: 9002-93-1) in PBS and blocked with Blocking solution of 1% BSA (Fisher Bioreagents CN:9048-46-8) in PBS. Primary antibodies were diluted in Washing solution of 0.01% Triton X-100 (Fisher Bioreagents CN: 9002-93-1) in PBS and left overnight at 4° C. Cells were then incubated with secondary antibodies in Washing solution at room temperature for 1 h. 1 μg/ml 4′,6′-diamidine-2′-phenylindole dihydrochloride (DAPI) was used to label for nuclei. […] To quantify the proliferation of myoblast, when needed, cells were treated with 1 μg/ml of EdU for 3 h before fixation. Detection of EdU was performed with Click-iT EdU Alexa Fluor 488 Imaging Kit before applying the immunofluorescence staining as described above.

The subject of series [4] is C3H10T1/2 cells. Nature of the series: Clock and Wnt gene/protein expression in C3H10T1/2 cells. The class given is cell-based. The settings on record: for β-catenin protein level during adipogenic differentiation: 1 μM, before and after adipogenic induction; for mRNA levels of Wnt ligands and receptors / clock gene expression: 10T1/2 cells; for mRNA levels of Wnt ligands and receptors: 6 hours; for clock gene expression: RT-qPCR. The procedure:
as §1
RNA extraction and RT-qPCR analysis. PureLink RNA Mini Kit (Invitrogen) were used to isolate total RNA from cells. cDNA was generated using Revert Aid RT kit (ThermoFisher) and quantitative PCR was performed using SYBR Green Master Mix (Thermno Fisher) in triplicates on ViiA 7 Real-Time PCR System (Applied Biosystems). Relative expression levels were determined using the comparative Ct method with normalization to 361B4 as internal control.

The mark [5] stands for this setting: U2OS Per2 luciferase reporter, recording 5-6 days, vs DMSO.

Entries after “also recorded” stand apart in the source; their conditions may differ.

Take `[H]/N=C(\N/C(=N/[H])NCCCCCCNC(=N)NC(=N)Nc1ccc(Cl)cc1)Nc1ccc(Cl)cc1` [CHX, chlorhexidine]: in the series on C3H10T1/2 cells [1], the “adipogenic factors C/EBPα and PPARγ” value was “significantly impaired levels of adipogenic factors”; the “mature adipocyte marker expression (FASN)” value was “attenuated expression of fatty acid synthase”; the “mature adipocyte formation / lipid accumulation” value is listed as “attenuated mature adipocyte formation”. In addition, the “adipogenic maturation, early stage” value with C3H10T1/2 cells [1] (5 days after adipogenic induction, oil-red-O) is recorded as “dose-dependent inhibition of adipogenic maturation”. Besides, in series [2] (day 3 of differentiation), the “pro-myogenic effect in Bmal1-deficient (BMKO/mdx) primary myoblasts” value is “abolished in Bmal1-deficient mdx primary myoblasts” and the “mature myofiber/myocyte formation (MyHC staining)” value is “significantly elevated formation of mature myofibers”. For the same molecule, the “toxicity in reporter cells” value in series [3] (CHX at 5 and 10 μM) is recorded as “significant toxicity with reduced amplitude”. In addition, in series [3] (Per2-Luc U2OS cells), the “effective concentration range, dose response of bioluminescence activity” value lay in the range of 0.2 to 2 µM. Besides, in series [3] (setting [5]), the circadian period length entry was “dose-dependent reduction of period length from 0.2 to 1 μM” and the clock cycling amplitude result is on record as “at a low concentration of 0.2 μM induced clock amplitude, but not at any higher concentrations examined”. Also, in series [3], the “Modulatory Property” value is on record as “clock activator”. Moreover, in the series with C2C12 myoblasts (0.5 μM, Day 7), the myotube hypertrophy result was “induced notable myotube hypertrophy”. Moreover, in the series with C2C12 myoblasts (2% serum differentiation, phase-contrast), the “morphological progression of myotube formation” value is reported as “markedly accelerated the morphological progression of myotube formation”. Besides, the “induction of Myf5 and eMyhc in Bmal1-deficient myoblasts” value with C2C12 myoblasts (BMKD myoblasts) is “loss of CHX induction of Myf5 and eMyhc”. Besides, in the series on C2C12 myoblasts (BMKD vs SC), the “differentiation of Bmal1 shRNA (BMKD) myoblasts” value is reported as “failed to augment BMKD myoblast differentiation”. Also, the “MyHC-positive mature myotubes (immunofluorescence)” value with C2C12 myoblasts is “increased numbers of MyHC-positive mature myotubes”. In addition, the “effective concentration range, pro-myogenic activities” value in the series on C2C12 myoblasts (C2C12 myoblasts) lay within 0.2 to 0.5 µM. Besides, the toxicity during differentiation result in the series on C2C12 myoblasts (CHX at 2 and 5 μM) is “appeared to be toxic to myoblasts with cell death during differentiation”. In the series with C2C12 myoblasts (RT-qPCR), the “Myf5, Myod1 and eMyhc expressions” value is “significantly induced by 0.5 μM CHX with a tendency toward higher expression 0.2 μM”. For the same molecule, the “Myf5 and Myogenin proteins” value in the series with C2C12 myoblasts (day 3 and day 5 of differentiation, immunoblot) was “early induction of myogenic factors Myf5 and Myogenin proteins”. Also, in the series on C3H10T1/2 cells [4], the “β-catenin protein level during adipogenic differentiation” value was “sufficient to re-activate the lost b-catenin protein level during adipogenic differentiation”; the “mRNA levels of Wnt ligands and receptors” value is listed as “induced the mRNA levels of Wnt1, Wnt10a, Fzd2, Fzd5”; the clock gene expression entry was “inductions of Pers and Crys”.
For `CCCCCC/C=N/C(=N)NC(=N)Nc1ccc(Cl)cc1` [CM002], in the series with C3H10T1/2 cells [1], the “adipogenic factors C/EBPα and PPARγ” value was “strong inhibition of adipogenic factors C/EBPα and PPARγ”; the “mature adipocyte marker expression (FASN)” value was “substantially lower”; the “mature adipocyte formation / lipid accumulation” value is recorded as “markedly suppressed their differentiation in a dose-dependent manner”. For the same molecule, the “myotube fusion, cells seeded at low density” value in series [2] (1 μM vs 0.5 μM, day 3) is reported as “more advanced myotube fusion than that of 0.5 μM”. Moreover, the “mature myofiber/myocyte formation (MyHC staining)” value in series [2] (day 3 of differentiation) is listed as “significantly enhanced mature myocyte formation induced by 0.5 μM CM002 treatment”. For the same molecule, in series [3] (Table 1, U2OS Per2::dLuc), the “LumiCycle Result: Clock activity, Amplitude” value is listed as “Amplitude: Increased” and the “LumiCycle Result: Clock activity, Period” value is listed as “Period: Shortening”. Moreover, the “LumiCycle Result: Clock activity (overall)” value in series [3] (U2OS Per2::dLuc, CHX analogs screened) is given as “strongest effect on activating circadian clock function”. Further, the circadian period length result in series [3] (setting [5]) was “shortening of period length starting at 0.2 μM that was maintained at 2 μM; also recorded: dose-dependent effect on inducing clock period length shortening”. For the same molecule, the “Modulatory Property” value in series [3] is listed as “strong clock activator”. The “MyHC-positive mature myotubes (immunofluorescence)” value with C2C12 myoblasts was “enhanced differentiation induced by 0.5 μM CM002 than CHX with strongest effect on promoting myotube formation observed at CM002 at 1 μM”. The Myogenesis result with C2C12 myoblasts (Table 1 summary of CHX analogs) is “Enhanced”. In addition, in the series with C3H10T1/2 cells [4], the “β-catenin protein level during adipogenic differentiation” value is recorded as “partially reverse the decline of β-catenin level at the differentiated state”; the “mRNA levels of Wnt ligands and receptors” value was “significant induction of Wnt ligands including Wnt1 and Wnt10a transcripts”; the clock gene expression entry is “induction of core clock transcription activators, CLOCK and Bmal1, together with up-regulation of its direct transcriptional target within the molecular clock loop, Nr1d1”.
